One assay addresses T1, 14-3-3γ (Homo sapiens, UniProt P61981).
T1 construct: 14-3-3γ (UniProt P61981-1; residues 1–247); 8-His tag with TEV protease cleavage site (N); made in house; host or cells: E. coli C41 (DE3)
T1 sequence (P61981 1-247): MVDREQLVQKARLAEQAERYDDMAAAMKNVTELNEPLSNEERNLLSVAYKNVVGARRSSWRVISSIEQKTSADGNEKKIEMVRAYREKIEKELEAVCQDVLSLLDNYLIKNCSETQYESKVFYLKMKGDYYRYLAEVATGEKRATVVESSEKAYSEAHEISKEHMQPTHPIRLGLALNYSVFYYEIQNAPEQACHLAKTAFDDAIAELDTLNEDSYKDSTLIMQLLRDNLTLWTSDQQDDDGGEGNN
The experiment in a line: SPR, PEAK peptides binding to immobilised 14-3-3γ. Particulars: peptide analyte over amine-coupled 14-3-3γ (CM5); Biacore S200, HBS-TP pH 7.4, 20 °C; steady-state 1:1 fit; mean ± S.E.M.; read-out: SPR KD, 14-3-3γ (gamma). The method, then:
(§1) Purified […]3 was diluted to 5 μg ml^-1 in 10 mM sodium acetate pH 4.0 and amine coupled at 25 °C to a Series S CM5 sensor chip, in HBS-N running buffer (20 mM HEPES pH 7.4, 150 mM NaCl) to a final immobilization level of 1100-1400 response units (RU), followed by surface deactivation using 1 M ethanolamine. A blank activation/deactivation was used for the reference surface. […] Samples were injected in a multi-cycle run (flow rate 30 μl min^-1, contact time of 60 s, dissociation 120 s) without regeneration. Sensorgrams were double referenced, and steady-state binding data fitted using a 1:1 binding model using Biacore S200 Evaluation Software (Cytiva, v. 1.1). […] Representative sensorgrams and fitted dissociation constant (KD) values, depicted as mean ± S.E.M.
(In general: SPR reads the build-up and loss of mass on a sensor chip optically.)

Another assay has as its target T2, 14-3-3σ (Homo sapiens).
T2 construct: 14-3-3ς (UniProt P63104-1; residues 1–245); 8-His tag with TEV protease cleavage site (N); made in house; host or cells: E. coli C41 (DE3)
The experiment in a line: SPR, PEAK tandem peptides binding to immobilised 14-3-3σ. Particulars: peptide analyte over amine-coupled 14-3-3σ (CM5); Biacore S200, HBS-TP pH 7.4, 20 °C; steady-state 1:1 fit; mean ± S.E.M.; read-out: SPR KD, 14-3-3σ (sigma). As for the experimental part: as §1

In a further assay the target is T3, 14-3-3ε (Homo sapiens, UniProt P62258).
T3 construct: 14-3-3ε (UniProt P62258-1; residues 1–255); 8-His tag with TEV protease cleavage site (N); made in house; host or cells: E. coli C41 (DE3)
T3 sequence (P62258 1-255): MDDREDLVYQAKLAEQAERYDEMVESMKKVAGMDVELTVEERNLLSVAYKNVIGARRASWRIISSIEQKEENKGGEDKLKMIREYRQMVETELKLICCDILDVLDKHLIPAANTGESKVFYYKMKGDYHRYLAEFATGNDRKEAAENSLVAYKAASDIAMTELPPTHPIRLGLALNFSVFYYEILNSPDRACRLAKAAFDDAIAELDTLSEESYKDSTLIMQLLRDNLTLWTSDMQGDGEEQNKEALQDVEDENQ
The experiment in a line: SPR, PEAK tandem peptides binding to immobilised 14-3-3ε. The conditions noted are these: peptide analyte over amine-coupled 14-3-3ε (CM5); Biacore S200, HBS-TP pH 7.4, 20 °C; steady-state 1:1 fit; mean ± S.E.M.; read-out: SPR KD, 14-3-3ε (epsilon). The method, then:
Purified […]3 was diluted to 5 μg ml^-1 in 10 mM sodium acetate pH 4.0 and amine coupled at 25 °C to a Series S CM5 sensor chip, in HBS-N running buffer (20 mM HEPES pH 7.4, 150 mM NaCl) to a final immobilization level of 1100-1400 response units (RU), followed by surface deactivation using 1 M ethanolamine. A blank activation/deactivation was used for the reference surface. […] PEAK PRM peptides: […] Samples were injected in a multi-cycle run (flow rate 30 μl min^-1, contact time of 60 s, dissociation 120 s) without regeneration. Sensorgrams were double referenced, and steady-state binding data fitted using a 1:1 binding model using Biacore S200 Evaluation Software (Cytiva, v. 1.1). […] Representative sensorgrams and fitted dissociation constant (KD) values, depicted as mean ± S.E.M.

The next assay addresses T4, 14-3-3η (Homo sapiens, UniProt Q04917).
T4 construct: 14-3-3η (UniProt Q04917-1; residues 1–246); 8-His tag with TEV protease cleavage site (N); made in house; host or cells: E. coli C41 (DE3)
T4 sequence (Q04917 1-246): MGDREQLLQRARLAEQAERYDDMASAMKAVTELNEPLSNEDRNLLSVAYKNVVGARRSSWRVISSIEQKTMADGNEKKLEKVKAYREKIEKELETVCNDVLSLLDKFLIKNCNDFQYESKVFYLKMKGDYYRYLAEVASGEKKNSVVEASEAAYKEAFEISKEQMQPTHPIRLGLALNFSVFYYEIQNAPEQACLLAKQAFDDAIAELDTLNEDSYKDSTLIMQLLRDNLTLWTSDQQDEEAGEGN
Description: SPR, PEAK tandem peptides binding to immobilised 14-3-3η. Particulars: peptide analyte over amine-coupled 14-3-3η (CM5); Biacore S200, HBS-TP pH 7.4, 20 °C; steady-state 1:1 fit; mean ± S.E.M.; read-out: SPR KD, 14-3-3η (eta). As for the experimental part:
as §1

For the next assay, the target named is Grb2^FL. Particulars: isothermal titration calorimetry, shown previously; read-out: ITC KD, Grb2^FL; cited from earlier work. Background: Isothermal titration calorimetry measures the heat released or taken up as one component is titrated into another.
The test system of assay [1] is PEAK3 pY24 phosphorylation in MCF-10A cells. The conditions noted are these: MCF-10A cells treated with inhibitor; cited from earlier work.
In another assay the target is 14-3-3ɣ. Description: SPR, 14-3-3ɣ binding to immobilised PEAK proteins. Set-up: species or system human. Particulars: 14-3-3ɣ analyte 0.46–1000 nM, multi-cycle, over immobilised biotinylated PEAK protein; Biacore 8K+, 20 °C; KD only an estimate (bivalent analyte model); N = 3. The method, then:
PEAK proteins and adapters proteins (full length or individual domains) were biotinylated using EZ-Link™ NHS-PEG4-Biotin (Thermo Fisher) at a 1:1 molar ratio (100 µM) for 1 h at room temperature, then excess biotin was removed by buffer exchange using a Zeba™ Spin Desalting Column (Thermo Fisher) into HBS-T buffer (20 mM HEPES pH 7.4, 150 mM NaCl, 1 mM TCEP).
SPR binding studies of PEAK proteins to full length CrkII/Grb2 and sub-domains were performed using a Biacore 8K+ Instrument (Cytiva) and analyzed using Biacore Insight Evaluation Software (v. 3.0.12.15655). […] Biotinylated PEAK proteins (with or without Src phosphorylation; 500 nM in HBS-TP) were immobilized using a biotin CAPture kit (Cytiva) in HBS-TP running buffer at 20 °C. Binding studies and steady-state data analysis were performed as described for CrkII^NSH3 with the inclusion of an additional surface regeneration step (60 s injection of 1 M NaCl) between cycles. For Grb2^FL, Grb2^SH2, CrkII^SH2, CrkII^FL monomer and CrkII^FL dimer, to reduce nonspecific interactions the HBS-TP running buffer was supplemented with additional NaCl to a final concentration of 500 mM.
Binding studies for 14-3-3ɣ were undertaken in the same way in multi cycle mode (8 point, 3-fold serial dilution series, 0.46–1000 nM, 60 s contact time, 300 s dissociation).

In a further assay the target is T5, CrkII^FL dimer (Homo sapiens, UniProt P46108).
T5 construct: full length CrkII (CrkII^FL; UniProt P46108-1, residues 1–330); 8-His tag with TEV protease cleavage site (N); made in house; host or cells: E. coli C41 (DE3)
The experiment in a line: SPR, CrkII FL dimer binding to immobilised PEAK proteins. Particulars: interactor as analyte over biotinylated PEAK protein (biotin CAPture); Biacore 8K+, HBS-TP with 500 mM NaCl, 20 °C; steady-state fit; mean ± SD (N = 2). As for the experimental part: (§2) SPR binding studies of PEAK PRM peptides to CrkII^NSH3 were performed using a Biacore S200 Instrument (Cytiva). Purified CrkII^NSH3 was diluted to 5 µg ml^−1 in 10 mM sodium acetate pH 4.0 and amine coupled at 25 °C to a Series S CM5 sensor chip, in HBS-N running buffer (20 mM HEPES pH 7.4, 150 mM NaCl) to a final immobilization level of 1100–1400 response units (RU), followed by surface deactivation using 1 M ethanolamine. A blank activation/deactivation was used for the reference surface. Peptide binding studies were performed at 20 °C in HBS-TP running buffer (20 mM HEPES pH 7.4, 150 mM NaCl, 1 mM TCEP, 0.005% (v/v) Tween-P20). […] Peptide stocks were further diluted to in running buffer to 10 or 20 µM and prepared as a 11-point concentration series (2-fold serial dilution, […] for PEAK PRM peptides, or 20 µM–20 nM for PEAK tandem motif peptides). Samples were injected in a multi-cycle run (flow rate 30 µl min^−1, contact time of 60 s, dissociation 120 s) without regeneration. Sensorgrams were double referenced, and steady-state binding data fitted using a 1:1 binding model using Biacore S200 Evaluation Software (Cytiva, v. 1.1).
SPR binding studies of PEAK proteins to full length CrkII/Grb2 and sub-domains were performed using a Biacore 8K+ Instrument (Cytiva) and analyzed using Biacore Insight Evaluation Software (v. 3.0.12.15655). […]

The target in another assay is T6, CrkII^NSH3 (Homo sapiens, UniProt P46108).
T6 construct: CrkII^NSH3; UniProt P46108-1, residues 134–191; 8-His tag with TEV protease cleavage site (N); made in house; host or cells: E. coli C41 (DE3)
The experiment in a line: SPR, CrkII NSH3 binding to immobilised PEAK proteins. Particulars: read-out: CrkII NSH3 SPR KD; interactor as analyte over biotinylated PEAK protein captured with biotin CAPture kit; Biacore 8K+, HBS-TP, 20 °C; steady-state fit; mean ± SD (N = 2); read-out: CrkII-SH2 SPR KD. As for the experimental part:
as §2
(§3) SPR binding studies of PEAK proteins to full length CrkII/Grb2 and sub-domains were performed using a Biacore 8K+ Instrument (Cytiva) and analyzed using Biacore Insight Evaluation Software (v. 3.0.12.15655). […] Binding studies and steady-state data analysis were performed as described for CrkII^NSH3 with the inclusion of an additional surface regeneration step (60 s injection of 1 M NaCl) between cycles.

The next assay has as its target T7, CrkII^SH2 (Homo sapiens, UniProt P46108).
T7 construct: CrkII^SH2; UniProt P46108-1, residues 6–120; 8-His tag with TEV protease cleavage site (N); made in house; host or cells: E. coli C41 (DE3)
Description: SPR, CrkII SH2 binding to immobilised PEAK proteins. Particulars: interactor as analyte over biotinylated PEAK protein (biotin CAPture); Biacore 8K+, HBS-TP with 500 mM NaCl, 20 °C; steady-state fit; mean ± S.E.M. (N = 3). As for the experimental part:
as §2, §3

pKd: −log10 of the molar value.

T6 sequence (P46108 134-191): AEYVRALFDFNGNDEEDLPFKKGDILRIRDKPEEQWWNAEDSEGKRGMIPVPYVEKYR
T2 sequence (P63104 whole entry, the tested form may be a part): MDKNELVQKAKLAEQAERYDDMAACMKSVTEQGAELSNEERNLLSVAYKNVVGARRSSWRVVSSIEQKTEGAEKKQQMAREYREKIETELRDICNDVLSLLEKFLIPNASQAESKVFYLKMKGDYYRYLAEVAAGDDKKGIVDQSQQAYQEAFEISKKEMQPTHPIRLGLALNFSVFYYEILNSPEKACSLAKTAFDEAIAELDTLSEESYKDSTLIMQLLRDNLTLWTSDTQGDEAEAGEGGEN
T5 sequence (P46108 whole entry, the tested form may be a part): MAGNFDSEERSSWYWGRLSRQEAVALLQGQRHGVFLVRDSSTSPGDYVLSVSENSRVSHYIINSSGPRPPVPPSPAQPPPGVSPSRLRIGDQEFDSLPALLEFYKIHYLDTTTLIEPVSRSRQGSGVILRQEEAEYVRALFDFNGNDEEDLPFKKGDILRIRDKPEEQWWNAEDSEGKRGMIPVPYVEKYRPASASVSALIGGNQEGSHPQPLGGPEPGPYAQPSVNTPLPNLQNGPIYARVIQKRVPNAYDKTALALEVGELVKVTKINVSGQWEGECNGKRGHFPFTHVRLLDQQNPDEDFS
T7 sequence (P46108 6-120): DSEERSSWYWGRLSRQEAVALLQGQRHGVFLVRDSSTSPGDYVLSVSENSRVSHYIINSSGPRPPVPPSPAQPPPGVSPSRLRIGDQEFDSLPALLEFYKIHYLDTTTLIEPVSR

The pKd is the negative decadic logarithm of the Kd, by convention in mol/L. Consider `CC[C@H](C)[C@H](NC(=O)[C@H](CCSC)NC(=O)[C@H](CCCCN)NC(=O)[C@H](CCCCN)NC(=O)[C@@H]1CCCN1C(=O)[C@H](CC(C)C)NC(=O)[C@@H]1CCCN1C(=O)[C@@H]1CCCN1C(=O)[C@@H]1CCCN1C(C)=O)C(=O)N[C@H](C(=O)N[C@@H](CCCNC(=N)N)C(=O)N[C@@H](C)C(=O)N[C@@H](CC(N)=O)C(=O)N[C@H](C(=O)N[C@@H](CCC(=O)O)C(=O)N1CCC[C@H]1C(=O)N[C@H](C(=O)N[C@@H](CO)C(=O)N[C@@H](CCCCN)C(=O)N[C@@H](CC(=O)O)C(N)=O)[C@@H](C)CC)[C@@H](C)O)[C@@H](C)CC` (single isomer, unassigned) [PEAK1^tandem], for which the pKd on 14-3-3γ, on 14-3-3σ (Homo sapiens), on 14-3-3ε and at 14-3-3η was less than 4.00 throughout.

In the case of `CC[C@H](C)[C@H](NC(=O)[C@H](CCCCN)NC(=O)[C@H](CCCCN)NC(=O)[C@H](CCC(N)=O)NC(=O)[C@@H]1CCCN1C(=O)[C@H](CC(C)C)NC(=O)[C@@H]1CCCN1C(=O)[C@@H]1CCCN1C(=O)[C@@H]1CCCN1C(C)=O)C(=O)N[C@H](C(=O)N[C@@H](CO)C(=O)N[C@@H](CCCNC(=N)N)C(=O)N[C@@H](C)C(=O)N[C@@H](C)C(=O)N[C@@H](CO)C(=O)N[C@@H](CO)C(=O)N1CCC[C@H]1C(=O)N[C@@H](CC(=O)O)C(=O)NCC(=O)N[C@@H](Cc1ccccc1)C(N)=O)C(C)C` (single isomer, unassigned) [PEAK2^tandem], the pKd on 14-3-3γ, on 14-3-3σ (Homo sapiens), on 14-3-3ε and at 14-3-3η was less than 4.00 throughout.

For `CC(=O)N[C@H](C(=O)N[C@@H](Cc1ccc(OP(=O)(O)O)cc1)C(=O)N[C@@H](CO)C(=O)N[C@@H](CC(N)=O)C(=O)N[C@@H](CC(C)C)C(=O)NCC(=O)N[C@@H](CCC(N)=O)C(N)=O)[C@@H](C)O` [SH2-pY peptide], the pKd on Grb2^FL is 5.59.

For `Cc1nc(Nc2ncc(C(=O)Nc3c(C)cccc3Cl)s2)cc(N2CCN(CCO)CC2)n1` [dasatanib], the “phosphorylation of PEAK3 at the TYSNL (pY24) site” value in assay [1] was “blocked”.

Take `COc1cc(-c2nn(CCN3CCC(N(C)C)CC3)c3ncnc(N)c23)ccc1NC(=O)OC(C)(C)C` [eCF506]: the “phosphorylation of PEAK3 at the TYSNL (pY24) site” value in assay [1] is on record as “blocked”.

In the case of “PEAK3-FL (+ Src phosphorylation): insect cell PEAK3 (1–473) phosphorylated with recombinant Src kinase”, the values for the pKd at 14-3-3ɣ, in the assay with CrkII^FL dimer and with CrkII^NSH3 were more than 6.00, 5.66 and 5.16, respectively.

For “PEAK3-FL: full length human PEAK3 (1–473) from insect cells, S69 phosphorylated, purified as 14-3-3 complex”, at 14-3-3ɣ, the pKd was more than 6.00 and the “SPR KD, 14-3-3ɣ” value is recorded as “bound strongly”. Further, the pKd with CrkII^NSH3 is 5.41. In addition, in the assay with CrkII^SH2, the “SPR KD, CrkII-SH2” value was “No binding”.
